According to ChEMBL document CHEMBL3885861, “Open TG-GATES”:

Organism: Rattus norvegicus
Experiment: Open TG-GATES - Regimen: Single
Assay type: toxicity, organism-based, Sprague-Dawley
Design: regimen Single, gender Male, age 6 weeks
Settings: in vivo, po, 3 mg/kg, route gavage, dose level Low; for gamma-GTP / ALP / ALT / AST / BUN / CRE / Ca / Cl / DBIL / GLC / IP / K / LDH / Na / PL / RALB / TBIL / TC / TG / TP: tissue Plasma; for APTT / Bas / Eos / Fbg / Hb / Ht / Lym / MCH / MCHC / Mono / Neu / Plat / RBC / Ret / WBC: tissue Blood; for KIDNEY_L / KIDNEY_R / KIDNEY_TOTAL: tissue Kidney; for LIVER: tissue Liver

## O=C(CCCN1CCC(O)(c2ccc(Cl)cc2)CC1)c1ccc(F)cc1 [HALOPERIDOL]
6 h
  gamma-GTP: 1.6 IU/L
9 h
  TERMINAL_BW: 199.3 g
  APTT: 16.8 s
  Bas: 0%
  Eos: 0.6%
  Fbg: 204.8 mg/dL
  Hb: 13.6 g/dL
  Ht: 40.5%
  Lym: 70.4%
  MCH: 22 pg
  MCHC: 33.6%
  Mono: 9.6%
  Neu: 19.4%
  Plat: 102.7 x10_4/uL
  RBC: 621.4 x10_4/ul
  Ret: 9.5%
  WBC: 60.9 x10_2/uL
  KIDNEY_L: 0.9 g
  KIDNEY_R: 1 g
  KIDNEY_TOTAL: 1.9 g
  LIVER: 8.5 g
  ALP: 810.6 IU/L
  ALT: 28.4 IU/L
  AST: 56.6 IU/L
  BUN: 10.2 mg/dL
  CRE: 0.5 mg/dL
  Ca: 10.2 mg/dL
  Cl: 106.6 meq/L
  DBIL: 0.018 mg/dL
  GLC: 183.4 mg/dL
  IP: 10.6 mg/dL
  K: 4.6 meq/L
  LDH: 84 IU/L
  Na: 139.2 meq/L
  PL: 126.6 mg/dL
  RALB: 3.6 g/dL
  TBIL: 0.4 mg/dL
  TC: 71 mg/dL
  TG: 31.2 mg/dL
  TP: 5.5 g/dL
  gamma-GTP: 1.8 IU/L
24 h
  TERMINAL_BW: 213.8 g
  APTT: 15.9 s
  Bas: 0%
  Eos: 1.2%
  Fbg: 198.8 mg/dL
  Hb: 13.6 g/dL
  Ht: 40.8%
  Lym: 75.6%
  MCH: 22.6 pg
  MCHC: 33.3%
  Mono: 6%
  Neu: 17.2%
  Plat: 105.6 x10_4/uL
  RBC: 601 x10_4/ul
  Ret: 9.4%
  WBC: 75.9 x10_2/uL
  KIDNEY_L: 1 g
  KIDNEY_R: 1 g
  KIDNEY_TOTAL: 1.9 g
  LIVER: 11.3 g
  ALP: 957.8 IU/L
  ALT: 35 IU/L
  AST: 59.2 IU/L
  BUN: 21.2 mg/dL
  CRE: 0.6 mg/dL
  Ca: 11.3 mg/dL
  Cl: 105.4 meq/L
  DBIL: 0.026 mg/dL
  GLC: 180.8 mg/dL
  IP: 7.9 mg/dL
  K: 5 meq/L
  LDH: 104.8 IU/L
  Na: 139.2 meq/L
  PL: 156.6 mg/dL
  RALB: 3.8 g/dL
  TBIL: 0.4 mg/dL
  TC: 80.6 mg/dL
  TG: 102.4 mg/dL
  TP: 5.9 g/dL
